Columns and labels:
Experiment in all cases: PK/LDH-coupled NADH oxidation at […] nm
Type in all cases: biochemical
[1] = biological target: T1, NAGK (N-acetyl glutamate kinase, Arg6) (Saccharomyces cerevisiae, UniProt Q01217, T340N)
T1 construct: gene ARG5

[2] = biological target: T2, NAGK (N-acetyl glutamate kinase, Arg6) (Saccharomyces cerevisiae, UniProt Q01217)
T2 construct: gene ARG5

[3] = biological target: T3, NAGK (N-acetyl glutamate kinase, Arg6) (Saccharomyces cerevisiae, UniProt Q01217, V267A)
T3 construct: gene ARG5
T3 sequence (Q01217 58-513 V267A): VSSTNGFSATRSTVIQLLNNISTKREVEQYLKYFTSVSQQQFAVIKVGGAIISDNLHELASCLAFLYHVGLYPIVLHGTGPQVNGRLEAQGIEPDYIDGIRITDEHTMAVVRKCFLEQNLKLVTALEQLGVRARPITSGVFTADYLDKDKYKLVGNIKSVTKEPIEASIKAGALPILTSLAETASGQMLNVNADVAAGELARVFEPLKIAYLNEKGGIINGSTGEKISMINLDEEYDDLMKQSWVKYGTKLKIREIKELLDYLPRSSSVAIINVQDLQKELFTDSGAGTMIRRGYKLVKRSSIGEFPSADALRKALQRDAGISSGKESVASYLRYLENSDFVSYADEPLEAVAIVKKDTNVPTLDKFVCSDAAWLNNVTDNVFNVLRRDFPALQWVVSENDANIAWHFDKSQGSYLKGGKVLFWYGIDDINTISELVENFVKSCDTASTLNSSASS

[4] = biological target: T4, NAGK (N-acetyl glutamate kinase, Arg6) (Saccharomyces cerevisiae, UniProt Q01217, T340S)
T4 construct: gene ARG5
T4 sequence (Q01217 58-513 T340S): as the sequence (Q01217 58-513 V267A) above, with A210V, T283S counted along it

[5] = biological target: T5, NAGK (N-acetyl glutamate kinase, Arg6) (Saccharomyces cerevisiae, UniProt Q01217, T340L)
T5 construct: gene ARG5
T5 sequence (Q01217 58-513 T340L): as the sequence (Q01217 58-513 V267A) above, with A210V, T283L counted along it

[6] = biological target: T6, NAGK (N-acetyl glutamate kinase, Arg6) (Saccharomyces cerevisiae, UniProt Q01217, T340R)
T6 construct: gene ARG5
T6 sequence (Q01217 58-513 T340R): as the sequence (Q01217 58-513 V267A) above, with A210V, T283R counted along it

[7] = biological target: T7, NAGK (N-acetyl glutamate kinase, Arg6) (Saccharomyces cerevisiae, UniProt Q01217, T340A)
T7 construct: gene ARG5
T7 sequence (Q01217 58-513 T340A): as the sequence (Q01217 58-513 V267A) above, with A210V, T283A counted along it

[8] = biological target: T8, NAGK (N-acetyl glutamate kinase, Arg6) (Saccharomyces cerevisiae, UniProt Q01217, C119Y)
T8 construct: gene ARG5
T8 sequence (Q01217 58-513 C119Y): as the sequence (Q01217 58-513 V267A) above, with C62Y, A210V counted along it

[9] = biological target: T9, NAGK (N-acetyl glutamate kinase, Arg6) (Saccharomyces cerevisiae, UniProt Q01217, T340E)
T9 construct: gene ARG5
T9 sequence (Q01217 58-513 T340E): as the sequence (Q01217 58-513 V267A) above, with A210V, T283E counted along it

T2 sequence (Q01217 58-513): as the sequence (Q01217 58-513 V267A) above, with A210V counted along it
T1 sequence (Q01217 58-513 T340N): as the sequence (Q01217 58-513 V267A) above, with A210V, T283N counted along it

`N=C(N)NCCC[C@H](N)C(=O)O` [arginine] gave an IC50 [1] of 24 ± 5.36 mM, an IC50 [2] of 0.09 mM and an IC50 [3] of 2.83 ± 0.16 mM. The IC50 [4] was 0.17 ± 0.12 mM, the IC50 [5] was 10.5 ± 0.8 mM and the IC50 [6] was 2.48 ± 0.67 mM. The IC50 [7] was 2.25 ± 0.2 mM, the IC50 [8] was 0.78 ± 0.05 mM and the IC50 [9] was 6.87 ± 1 mM.

Source: PMC9241915, “Functional Analysis of Feedback Inhibition-Insensitive Variants of N-Acetyl Glutamate Kinase Found in Sake Yeast Mutants with Ornithine Overproduction” (Microbiology Spectrum, 2022)
